Results on 41 compounds are retold here after patent US20210040062A1, “AZOLE-SUBSTITUTED PYRIDINE COMPOUND” (TAISHO PHARMACEUTICAL CO., LTD., priority 2016, published 2021).

Molecules are shown by their SMILES.

One experiment addresses T1, human CYP4A11 (Homo sapiens, UniProt Q02928).
T1 construct: host or cells: Escherichia coli (membrane fraction)
T1 sequence (Q02928 5-519): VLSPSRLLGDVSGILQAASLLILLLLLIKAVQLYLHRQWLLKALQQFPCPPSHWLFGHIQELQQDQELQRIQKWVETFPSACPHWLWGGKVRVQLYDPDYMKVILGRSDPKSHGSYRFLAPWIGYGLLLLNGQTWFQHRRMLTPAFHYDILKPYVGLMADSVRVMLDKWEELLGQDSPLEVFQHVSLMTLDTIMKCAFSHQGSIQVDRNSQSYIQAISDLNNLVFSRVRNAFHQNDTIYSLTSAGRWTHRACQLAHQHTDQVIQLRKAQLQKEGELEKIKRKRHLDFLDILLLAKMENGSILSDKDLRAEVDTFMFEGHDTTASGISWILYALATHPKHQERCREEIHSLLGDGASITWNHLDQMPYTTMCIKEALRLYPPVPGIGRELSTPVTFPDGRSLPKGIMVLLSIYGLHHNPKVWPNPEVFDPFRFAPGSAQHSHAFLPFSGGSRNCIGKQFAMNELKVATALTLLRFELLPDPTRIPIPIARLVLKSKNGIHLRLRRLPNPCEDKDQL
The experiment is described as follows: CYP4A11 inhibition test (Test Example 1). Format: biochemical. To be noted: Escherichia coli membrane fraction expressing human CYP4A11, 60 μM luciferine derivative, room temperature 60 minutes, luminescence. The essentials:
(§1)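 E. coli membranes expressing human enzyme (100 μg/mL protein) with luciferin-derivative substrate, 60 min at room temperature, then luminescence read. CYP4F2: 50 mM KPO4 pH 7.4, 2.5 μM substrate, 1 mM NADPH. CYP4A11: 100 mM Tris-HCl pH 7.5, 60 μM substrate, NADP+/glucose 6-phosphate regenerating system.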

For another experiment, the target named is T2, human CYP4F2 (Homo sapiens, UniProt P78329).
T2 construct: host or cells: Escherichia coli (membrane fraction)
T2 sequence (P78329 5-520): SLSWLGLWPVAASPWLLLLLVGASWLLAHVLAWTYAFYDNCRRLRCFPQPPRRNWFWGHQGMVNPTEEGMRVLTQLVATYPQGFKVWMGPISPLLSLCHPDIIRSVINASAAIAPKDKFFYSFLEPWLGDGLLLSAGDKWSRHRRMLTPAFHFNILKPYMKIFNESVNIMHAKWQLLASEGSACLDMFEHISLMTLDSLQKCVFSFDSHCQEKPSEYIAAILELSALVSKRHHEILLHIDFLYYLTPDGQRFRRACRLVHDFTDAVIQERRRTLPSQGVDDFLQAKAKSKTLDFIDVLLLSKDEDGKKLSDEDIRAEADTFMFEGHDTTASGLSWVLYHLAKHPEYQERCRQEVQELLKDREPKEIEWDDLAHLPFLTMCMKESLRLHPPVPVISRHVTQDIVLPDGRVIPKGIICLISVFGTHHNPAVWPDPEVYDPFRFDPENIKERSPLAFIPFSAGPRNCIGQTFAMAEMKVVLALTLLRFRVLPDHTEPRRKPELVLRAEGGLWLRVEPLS
The experiment is described as follows: CYP4F2 inhibition test (Test Example 1). Type of experiment: biochemical. To be noted: Escherichia coli membrane fraction expressing human CYP4F2, 2.5 μM luciferine derivative, room temperature 60 minutes, luminescence. The essentials: as §1

With `O=C(NC1CC1)N1CCC(COc2ccc(-c3ccn[nH]3)nc2)CC1` [Example 8-1, N-Cyclopropyl-4-({[6-(1H-pyrazol-5-yl)pyridin-3-yl]oxy}methyl)piperidin-1-carboxamide], the figures for the IC50 against human CYP4A11 and at human CYP4F2 were 1500 nM and 110 nM, respectively.
As to `CS(=O)(=O)c1cccc(COc2ccc(-c3[nH]ncc3C(N)=O)nc2)c1` [Example 48-1, 5-{5-[(3-Methylsulfonylphenyl)methoxy]pyridin-2-yl}-1H-pyrazole-4-carboxamide], the results for the IC50 on human CYP4A11 and on human CYP4F2 were 20000 nM and 33000 nM, respectively.
For `O=C(CCN1CCCS1(=O)=O)N1CCC[C@@H](COc2ccc(-c3ccn[nH]3)nc2)C1` [Example 3-38], the 50% inhibitory concentration (IC50) was determined as 1800 nM against human CYP4A11 and 380 nM on human CYP4F2.
On the same counts, the results for `O=C(CS(=O)(=O)c1cccc(COc2ccc(-c3ccn[nH]3)nc2)c1)N1CCC1` [Example 18-4] are 76 nM and 85 nM.
With `COCCOC(=O)NCCC(=O)N1CCC[C@@H](COc2ccc(-c3ccn[nH]3)nc2)C1` [Example 1-34], the figures for the 50% inhibitory concentration (IC50) on human CYP4A11 and against human CYP4F2 were 310 nM and 79 nM, respectively.
With `CC(C)OC(=O)NCCC(=O)N1CCC[C@@H](COc2ccc(-c3ccn[nH]3)nc2)C1` [Example 1-32], the IC50 on human CYP4A11 turned out to be 67 nM; at human CYP4F2 it was 27 nM.
Regarding `CC(=O)N1CCC(COc2cnc(-c3ccn[nH]3)cc2C)CC1` [Example 24-3], the IC50 at human CYP4A11 was determined as 120 nM; on human CYP4F2, 35 nM.
On the same counts, the results for `CC(C)(C)OC(=O)NCCC(=O)N1CCC[C@@H](COc2ccc(-c3ccn[nH]3)nc2)C1` [Example 3-18] are 50 nM and 18 nM.
Take `CCS(=O)(=O)c1cccc(COc2ccc(-c3ccn[nH]3)nc2)c1` [Example 18-6]: the results for the IC50 at human CYP4A11 and at human CYP4F2 were 27 nM and 93 nM, respectively.
For `CS(=O)(=O)c1cccc(COc2ccc(-c3cn[nH]c3)nc2)c1` [Example 41-1, 5-[(3-Methylsulfonylphenyl)methoxy]-2-(1H-pyrazol-4-yl)pyridine], the IC50 was 120 nM on human CYP4A11 and 470 nM against human CYP4F2.
For `O=C(CC1CCS(=O)(=O)C1)N1CCC[C@@H](COc2ccc(-c3ccn[nH]3)nc2)C1` (stereo partly shown) [Example 3-13], the IC50 against human CYP4A11 was found to be 1500 nM; at human CYP4F2, 280 nM.
For `FC(F)(F)c1ccc(COc2ccc(-c3ccn[nH]3)nc2)cc1` [Example 25-20], the concentration for half-maximal inhibition (IC50) at human CYP4A11 worked out at 1200 nM; against human CYP4F2 it was 14 nM.
For the compound `CC(=O)N(C)[C@H]1C[C@H](COc2ccc(-c3ccn[nH]3)nc2)C1` [Example 17-1-2, N-Methyl-N-[trans-3-({[6-(1H-pyrazol-5-yl)pyridin-3-yl]oxy}methyl)cyclobutyl]acetamide], the half-maximal inhibitory concentration (IC50) was 2700 nM against human CYP4A11 and 19 nM against human CYP4F2.
Regarding `O=S(=O)(C1CC1)N1CCC[C@@H](COc2cnc(-c3ccn[nH]3)c(F)c2)C1` [Example 10-17], the IC50 is 19 nM on human CYP4A11 and 38 nM on human CYP4F2.
On the same counts, the results for `CC(=O)N1CCC(C)(COc2ccc(-c3ccn[nH]3)nc2)CC1` [Example 13-2] are 640 nM and 10 nM.
As to `CC(=O)N1CCC(COc2ccc(-c3[nH]ncc3F)nc2)CC1` [Example 23-1, 1-[4-({[6-(4-Fluoro-1H-pyrazol-5-yl)pyridin-3-yl]oxy}methyl)piperidin-1-yl]ethan-1-one], the concentration for half-maximal inhibition (IC50) against human CYP4A11 was found to be 71 nM; on human CYP4F2 it was 13 nM.
Regarding `O=C(c1cc(CO)ccn1)N1CCC[C@@H](COc2ccc(-c3ccn[nH]3)nc2)C1` [Example 3-27], the IC50 on human CYP4A11 came out at 310 nM; on human CYP4F2, 700 nM.
For the compound `O=C(NCCC(=O)N1CCC[C@@H](COc2ccc(-c3ccn[nH]3)nc2)C1)C1CCC1` [Example 4-8], the IC50 was found to be 91 nM against human CYP4A11 and 43 nM against human CYP4F2.
Take `O=C(Cn1ccccc1=O)N1CCC[C@@H](COc2ccc(-c3ccn[nH]3)nc2)C1` [Example 3-28]: the concentration for half-maximal inhibition (IC50) is 2400 nM at human CYP4A11 and 3200 nM at human CYP4F2.
On to `Cc1cccc(COc2ccc(-c3ccn[nH]3)nc2)c1` [Reference Example 54-1, 5-[(3-Methylphenyl)methoxy]-2-(1H-pyrazol-5-yl)pyridine], for which the IC50 is 340 nM against human CYP4A11 and 88 nM on human CYP4F2.
For `CC(=O)N[C@H]1CC[C@H](COc2ccc(-c3ccn[nH]3)nc2)CC1` [Example 14-5], in that order: 610 nM and 220 nM.
Take `O=C(C1CCC1)N1CCC(COc2ccc(-c3ccn[nH]3)nc2)CC1` [Example 2-3]: the IC50 on human CYP4A11 is 360 nM; at human CYP4F2, 76 nM.
With `CC(C)S(=O)(=O)N1CCC(CCOc2ccc(-c3ccn[nH]3)nc2)CC1` [Example 10-25], the IC50 turned out to be 390 nM against human CYP4A11 and 340 nM on human CYP4F2.
Take `Fc1ccc(COc2ccc(-c3ccn[nH]3)nc2)cc1` [54-17]: the results for the IC50 at human CYP4A11 and against human CYP4F2 were 370 nM and 21 nM, respectively.
Turning to `CC(C)NC(=O)N1CCC(CCOc2ccc(-c3ccn[nH]3)nc2)CC1` [Example 9-3], the values for the 50% inhibitory concentration (IC50) against human CYP4A11 and against human CYP4F2 were 360 nM and 150 nM, respectively.
On to `CC(=O)N1CCC(COc2ccc(-c3c[nH]nn3)nc2)CC1` [Example 43-1, 1-(4-{[6-(1H-Triazol-4-yl)pyridin-3-yl]oxymethyl}piperidin-1-yl)ethanone], for which the half-inhibitory concentration (IC50) turned out to be 4800 nM at human CYP4A11 and 3100 nM against human CYP4F2.
On the same counts, the results for `CC1(C(=O)N2CCC(COc3ccc(-c4ccn[nH]4)nc3)CC2)CC1` [Example 2-1, (1-Methylcyclopropyl) [4-({[6-(1H-pyrazol-5-yl)pyridin-3-yl]oxy}methyl)piperidin-1-yl]methanone] are 1100 nM and 830 nM.
In the case of `CS(=O)(=O)c1ccccc1CCOc1ccc(-c2ccn[nH]2)nc1` [Example 14-15], the IC50 at human CYP4A11 stood at 78 nM; at human CYP4F2, 1500 nM.
With `c1cc(-c2ccc(OCc3ccnc(-n4cncn4)c3)cn2)[nH]n1` [Example 25-9], the IC50 was found to be 1300 nM against human CYP4A11 and 12 nM against human CYP4F2.
With `c1ccc2cc(COc3ccc(-c4ccn[nH]4)nc3)ccc2c1` [Example 25-14], the IC50 came out at 410 nM against human CYP4A11 and 16 nM against human CYP4F2.
For the compound `CC(=O)NCC12CC(COc3ccc(-c4ccn[nH]4)nc3)(C1)C2` [Example 21-1, N-{[3-({[6-(1H-Pyrazol-5-yl)pyridin-3-yl]oxy}methyl)bicyclo[1.1.1]pentan-1-yl]methyl}acetamide], the concentration for half-maximal inhibition (IC50) came out at 1200 nM against human CYP4A11 and 150 nM against human CYP4F2.
On the same counts, the results for `CC(=O)N1CCCC1C(=O)N1CCC[C@@H](COc2ccc(-c3ccn[nH]3)nc2)C1` (stereo partly shown) [Example 3-23] are 3200 nM and 4700 nM.
On to `CC(C)C(=O)N1CCC[C@@H](COc2ccc(-c3ccn[nH]3)nc2)C1` [Example 1-7], for which the half-inhibitory concentration (IC50) was found to be 87 nM on human CYP4A11 and 150 nM at human CYP4F2.
In the case of `CC(=O)N1CCC[C@H](COc2ccc(-c3ccn[nH]3)nc2)C1` [Example 1-11], the IC50 against human CYP4A11 amounted to 220 nM; on human CYP4F2, 180 nM.
As to `O=C(NCCC(=O)N1CCC[C@@H](COc2ccc(-c3ccn[nH]3)nc2)C1)C1CCCC1` [Example 4-10], the IC50 against human CYP4A11 is 56 nM; against human CYP4F2, 20 nM.
As for `Cc1ccc(S(=O)(=O)c2ccc(COc3ccc(-c4ccn[nH]4)nc3)cc2)cc1` [Example 25-21], the IC50 against human CYP4A11 was 2400 nM; against human CYP4F2, 40 nM.
As for `FC(F)(F)Oc1cccc(COc2ccc(-c3ccn[nH]3)nc2)c1` [Example 25-23], the values for the IC50 against human CYP4A11 and against human CYP4F2 were 160 nM and 52 nM, respectively.
On the same counts, the results for `c1cc(-c2ccc(OCc3ccc4nccnc4c3)cn2)[nH]n1` [Example 25-15] are 2700 nM and 11 nM.
On to `CC(C)CC(=O)N1CC(S(=O)(=O)N2CCC[C@@H](COc3ccc(-c4ccn[nH]4)nc3)C2)C1` [Example 1-20], for which the figures for the half-inhibitory concentration (IC50) against human CYP4A11 and on human CYP4F2 were 77 nM and 8.6 nM, respectively.
With `CC(C)C(=O)N1CCC(CCOc2ccc(-c3ccn[nH]3)nc2)CC1` [Example 4-2], the half-maximal inhibitory concentration (IC50) at human CYP4A11 was 380 nM; on human CYP4F2 it was 50 nM.
As for `CS(=O)(=O)c1cncc(COc2ccc(-c3n[nH]cc3Cl)nc2)c1` [Example 13-18], the IC50 worked out at 190 nM on human CYP4A11 and 93 nM against human CYP4F2.
